Laboratory results reported in patent US9149038B2, “4-amino-6-(heterocyclic)picolinates and 6-amino-2-(heterocyclic)pyrimidine-4-carboxylates and their use as herbicides” (Dow AgroSciences LLC, priority 2013, dated 2015).
Like-named read-outs stand apart in the source and are kept apart here.

Key:
[1] = system: Key Grass and Sedge Weeds as well as Grass Crops; test: Post-Emergent Test II: postemergent herbicidal activity, visual rating after 14 d (Table 8); type: in vivo; conditions: post-emergence, 336 h; for pest or weed control at 35 g/ha: 35 g ai/ha; for pest or weed control at 70 g/ha: 70 g ai/ha; for pest or weed control at 140 g/ha: 140 g ai/ha
Procedure, shortened: (§1)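 Visual scoring at 14 d, 0 (no injury) to 100 (complete kill), relative to untreated plants. Postemergent overhead track-sprayer application, 187 L/ha, at a top rate plus serial ½×–1/16× rates, to plants grown 7–21 d at about 23–29° C day under a 15 h photoperiod, then subirrigated.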

[2] = system: Key Broadleaf Weed and Crop Species; test: Post-Emergent Test II: postemergent herbicidal activity, visual rating after 14 d (Table 7); type: in vivo; conditions: post-emergence, 336 h; for pest or weed control at 35 g/ha: 35 g ai/ha; for pest or weed control at 70 g/ha: 70 g ai/ha; for pest or weed control at 140 g/ha: 140 g ai/ha
Procedure, shortened: as §1

[3] = barnyardgrass (Echinochloa crus-galli), read-out: Visual Growth Reduction (%) 14 Days After Application, ECHCG
[4] = giant foxtail (Setaria faberi), read-out: Visual Growth Reduction (%) 14 Days After Application, SETFA
[5] = rice (Oryza sativa), read-out: Visual Growth Reduction (%) 14 Days After Application, ORYSA
[6] = wheat, spring (Triticum aestivum), read-out: Visual Growth Reduction (%) 14 Days After Application, TRZAS
[7] = yellow nutsedge (Cyperus esculentus), read-out: Visual Growth Reduction (%) 14 Days After Application, CYPES
[8] = ABUTH: velvetleaf (Abutilon theophrasti), read-out: Visual Growth Reduction (%) 14 Days After Application ABUTH
[9] = AMARE: redroot pigweed (Amaranthus retroflexus), read-out: Visual Growth Reduction (%) 14 Days After Application AMARE
[10] = BRSNN: oilseed rape, canola (Brassica napus), read-out: Visual Growth Reduction (%) 14 Days After Application BRSNN
[11] = CHEAL: lambsquarters (Chenopodium album), read-out: Visual Growth Reduction (%) 14 Days After Application CHEAL
[12] = EPHHL: wild poinsettia (Euphorbia heterophylla), read-out: Visual Growth Reduction (%) 14 Days After Application EPHHL
[13] = HELAN: sunflower (Helianthus annuus), read-out: Visual Growth Reduction (%) 14 Days After Application HELAN

## COC(=O)c1nc(-c2cccc3c2OC(F)(F)O3)cc(N)c1Cl [Compound 84]
[1]; [3]
  pest or weed control at 35 g/ha: 0 to 29%
  pest or weed control at 70 g/ha: 0 to 29%
  pest or weed control at 140 g/ha: 0 to 29%
[1]; [4]
  pest or weed control at 35 g/ha: 0 to 29%
  pest or weed control at 70 g/ha: 0 to 29%
  pest or weed control at 140 g/ha: 0 to 29%
[1]; [5]
  pest or weed control at 35 g/ha: 0 to 29%
  pest or weed control at 70 g/ha: 0 to 29%
  pest or weed control at 140 g/ha: 0 to 29%
[1]; [6]
  pest or weed control at 35 g/ha: 0 to 29%
  pest or weed control at 70 g/ha: 0 to 29%
  pest or weed control at 140 g/ha: 0 to 29%
[1]; [7]
  pest or weed control at 35 g/ha: 0 to 29%
  pest or weed control at 70 g/ha: 0 to 29%
  pest or weed control at 140 g/ha: 0 to 29%
[2]; [8]
  pest or weed control at 35 g/ha: 45 to 59%
  pest or weed control at 70 g/ha: 60 to 74%
  pest or weed control at 140 g/ha: 75 to 84%
[2]; [9]
  pest or weed control at 35 g/ha: 95 to 100%
  pest or weed control at 70 g/ha: 95 to 100%
  pest or weed control at 140 g/ha: 95 to 100%
[2]; [10]
  pest or weed control at 35 g/ha: 60 to 74%
  pest or weed control at 70 g/ha: 75 to 84%
  pest or weed control at 140 g/ha: 85 to 94%
[2]; [11]
  pest or weed control at 35 g/ha: 85 to 94%
  pest or weed control at 70 g/ha: 85 to 94%
  pest or weed control at 140 g/ha: 95 to 100%
[2]; [12]
  pest or weed control at 35 g/ha: 0 to 29%
  pest or weed control at 70 g/ha: 0 to 29%
  pest or weed control at 140 g/ha: 0 to 29%
[2]; [13]
  pest or weed control at 35 g/ha: 0 to 29%
  pest or weed control at 70 g/ha: 30 to 44%
  pest or weed control at 140 g/ha: 30 to 44%
